Tests used:
[1] = tested on: adults with biopsy-confirmed NASH; test: 36-week Phase 2 serial MRI-PDFF and liver biopsy study: liver volume and PDFF; type: in vivo, human
Method: Hepatomegaly may cause symptoms (e.g., pain) in NASH patients, and is thought to be driven primarily by high liver fat content. […] This study was to assess the relationship between liver triglycerides as measured by MRI-PDFF and liver volume (LV) in placebo and resmetirom-treated patients.
LV was assessed using a validated artificial intelligence model for segmenting the liver on standard MR images.
LV at baseline was elevated in non-cirrhotic and cirrhotic NASH patients relative to literature values for healthy controls and was greater than predicted even after accounting for sex and body weight. PDFF correlated with LV at baseline in non-cirrhotic (r2=0.19, p<0.001) and more weakly in cirrhotic NASH (r2=0.079, p=0.01).

[2] = tested on: adults with biopsy-confirmed NASH; test: MAESTRO-NASH: adverse events, serious adverse events, malignancies
Text: Safety end points included adverse events, biochemical assessments, and clinical assessments. Selected serious adverse events (including deaths, cardiovascular events, and potential drug-induced liver injury) were adjudicated by independent, external event-adjudication committees whose members were unaware of the trial-group assignments.

[3] = 80 mg (n = 322), safety population

For CC(C)c1cc(Oc2c(Cl)cc(-n3nc(C#N)c(=O)[nH]c3=O)cc2Cl)n[nH]c1=O [Resmetirom, 2-(3,5-dichloro-4-((5-isopropyl-6-oxo-1,6-dihydropyridazin-3-yl)oxy)phenyl)-3,5-dioxo-2,3,4,5-tetrahydro-1,2,4-triazine-6-carbonitrile], the “LV reduction (CFB)” value ([1]; 12 weeks) was −18.6%, the “LV reduction (CFB)” value ([1]; 36 weeks) was −20.5% and the “patients with ≥15% reduction in liver volume” value ([1]; Week 12) was 69.2%. For the same compound, the “Adverse event leading to trial discontinuation before wk 52, number of patients” value ([2]; 80 mg) was 6, the “Adverse event leading to trial discontinuation during entire treatment period, number of patients” value ([2]; 80 mg) was 9 and the “Adverse event leading to trial discontinuation during entire treatment period, percent of patients” value ([2]; 80 mg) was “(2.8) percent”. For the same compound, the “Arthralgia, number of patients” value ([2]; 80 mg) was 48, the “Arthralgia, percent of patients” value ([2]; 80 mg) was “(14.9) percent” and the “Back pain, number of patients” value ([2]; 80 mg) was 35. The “Back pain, percent of patients” value ([2]; 80 mg) was “(10.9) percent”, the “Cancer reported, patients” value ([2]; 80 mg) was 1.2% and the “Covid-19, number of patients” value ([2]; 80 mg) was 69. The “Covid-19, percent of patients” value ([2]; 80 mg) was “(21.4) percent”, the “Diarrhea, number of patients” value ([2]; 80 mg) was 87 and the “Diarrhea, percent of patients” value ([2]; 80 mg) was “(27.0) percent”. The “Fatal adverse event, number of patients” value ([2]; 80 mg) was 1, the “Fatal adverse event, percent of patients” value ([2]; 80 mg) was “(0.3) percent” and the “Fatigue, number of patients” value ([2]; 80 mg) was 33. For the same compound, the “Fatigue, percent of patients” value ([2]; 80 mg) was “(10.2) percent”, the “Grade 1: mild, number of patients” value ([2]; 80 mg) was 73 and the “Grade 1: mild, percent of patients” value ([2]; 80 mg) was “(22.7) percent”. For the same compound, the “Grade 2: moderate, number of patients” value ([2]; 80 mg) was 180, the “Grade 2: moderate, percent of patients” value ([2]; 80 mg) was “(55.9) percent” and the “Grade 3 or higher: severe, number of patients” value ([2]; 80 mg) was 43. For the same compound, the “Grade 3 or higher: severe, percent of patients” value ([2]; 80 mg) was “(13.4) percent”, the “Major adverse cardiovascular event, number of patients” value ([2]; 80 mg) was 1 and the “Major adverse cardiovascular event, percent of patients” value ([2]; 80 mg) was “(0.3) percent”. The “Nausea, number of patients” value ([2]; 80 mg) was 71, the “Nausea, percent of patients” value ([2]; 80 mg) was “(22.0) percent” and the “Other cardiovascular event, number of patients” value ([2]; 80 mg) was 0. The “Pruritus, number of patients” value ([2]; 80 mg) was 26, the “Pruritus, percent of patients” value ([2]; 80 mg) was “(8.1) percent” and the “Urinary tract infection, number of patients” value ([2]; 80 mg) was 33. The “Urinary tract infection, percent of patients” value ([2]; 80 mg) was “(10.2) percent”, the “≥1 Adverse event attributed to resmetirom, number of patients” value ([2]; 80 mg) was 124 and the “≥1 Adverse event attributed to resmetirom, percent of patients” value ([2]; 80 mg) was “(38.5) percent”. For the same compound, the “≥1 Adverse event, number of patients” value ([2]; 80 mg) was 296, the “≥1 Adverse event, percent of patients” value ([2]; 80 mg) was “(91.9) percent” and the “≥1 Serious adverse event attributed to resmetirom, number of patients” value ([2]; 80 mg) was 2. For the same compound, the “≥1 Serious adverse event attributed to resmetirom, percent of patients” value ([2]; 80 mg) was “(0.6) percent”, the “≥1 Serious adverse event, number of patients” value ([2]; 80 mg) was 35 and the “Malignancy: Basal cell carcinoma” value ([2]; 80 mg (N = 322)) was 2 (0.6) n (%). For the same compound, the “Malignancy: Breast carcinoma” value ([2]; 80 mg (N = 322)) was 1 (0.3) n (%), the “Malignancy: Malignant melanoma” value ([2]; 80 mg (N = 322)) was 0 n (%) and the “Malignancy: Skin cancer (squamous cell)” value ([2]; 80 mg (N = 322)) was 1 (0.3) n (%). For the same compound, the “Patients with any malignancy” value ([2]; 80 mg (N = 322)) was 4 (1.2) n (%), the “Patients with at least one TE-SAEs” value ([2]; 80 mg (N = 322)) was 35 (10.9) n (%) and the “SAE: Acute Gallstone-related disorders” value ([2]; 80 mg (N = 322)) was 3 (0.9) n (%). For the same compound, the “SAE: COVID-19” value ([2]; 80 mg (N = 322)) was 1 (0.3) n (%), the “SAE: COVID-19 pneumonia” value ([2]; 80 mg (N = 322)) was 2 (0.6) n (%) and the “SAE: Cardiac disorders” value ([2]; 80 mg (N = 322)) was 3 (0.9) n (%). The “SAE: Gastrointestinal disorders” value ([2]; 80 mg (N = 322)) was 3 (0.9) n (%), the “SAE: General disorders and administration site conditions” value ([2]; 80 mg (N = 322)) was 2 (0.6) n (%) and the “SAE: Infections and infestations” value ([2]; 80 mg (N = 322)) was 12 (3.7) n (%). The “SAE: Injury, poisoning and procedural complications” value ([2]; 80 mg (N = 322)) was 3 (0.9) n (%), the “SAE: Musculoskeletal and connective tissue disorders” value ([2]; 80 mg (N = 322)) was 7 (2.2) n (%) and the “SAE: Nervous system disorders” value ([2]; 80 mg (N = 322)) was 3 (0.9) n (%). The “SAE: Post procedural haemorrhage” value ([2]; 80 mg (N = 322)) was 1 (0.3) n (%), the “SAE: Respiratory, thoracic and mediastinal disorders” value ([2]; 80 mg (N = 322)) was 3 (0.9) n (%) and the “Adverse event: Abdominal distension” value [2, 3] was 14 (4.3) no. (%). For the same compound, the “Adverse event: Abdominal pain” value [2, 3] was 23 (7.1) no. (%), the “Adverse event: Abdominal pain upper” value [2, 3] was 23 (7.1) no. (%) and the “Adverse event: Constipation” value [2, 3] was 21 (6.5) no. (%). For the same compound, the “Adverse event: Cough” value [2, 3] was 14 (4.3) no. (%), the “Adverse event: Decreased appetite” value [2, 3] was 5 (1.6) no. (%) and the “Adverse event: Dizziness” value [2, 3] was 20 (6.2) no. (%). The “Adverse event: Gastrooesophageal reflux disease” value [2, 3] was 16 (5.0) no. (%), the “Adverse event: Headache” value [2, 3] was 30 (9.3) no. (%) and the “Adverse event: Hypertension” value [2, 3] was 16 (5.0) no. (%). For the same compound, the “Adverse event: Muscle spasms” value [2, 3] was 14 (4.3) no. (%), the “Adverse event: Nasopharyngitis” value [2, 3] was 14 (4.3) no. (%) and the “Adverse event: Pain in extremity” value [2, 3] was 12 (3.7) no. (%). For the same compound, the “Adverse event: Procedural pain” value [2, 3] was 16 (5.0) no. (%), the “Adverse event: Rash” value [2, 3] was 12 (3.7) no. (%) and the “Adverse event: Sinusitis” value [2, 3] was 10 (3.1) no. (%). The “Adverse event: Type 2 diabetes” value [2, 3] was 24 (7.5) no. (%), the “Adverse event: Upper respiratory tract infection” value [2, 3] was 23 (7.1) no. (%) and the “Adverse event: Vomiting” value [2, 3] was 28 (8.7) no. (%).
